# Measured values from ChEMBL document CHEMBL1151830, “Cottoquinazoline A and cotteslosins A and B, metabolites from an Australian marine-derived strain of Aspergillus versicolor” (J Nat Prod, 2009).
# Non-standard residues stand in square brackets, D forms with d. Residues, ends and D or L forms follow the SMILES beside them. NMeY = CN[C@@H](Cc1ccc(O)cc1)C(=O)O
# How the values were obtained:
# Assay type in all cases: functional, cell-based
# DU-145 = experiment: Cytotoxicity against human DU145 cells
# T47D = experiment: Cytotoxicity against human T47D cells
# [1] = Cytotoxicity against human MM418c5 cells
compound,measurement,setting,value
CC[C@H](C)[C@@H]1NC(=O)[C@H](C(C)C)NC(=O)[C@@H]2CCCN2C(=O)[C@H](Cc2ccc(O)cc2)NC(=O)[C@H](Cc2ccc(O)cc2)N(C)C1=O [COTTESLOSIN A] (cyclo(I[NMeY]YPV)),EC50,DU-145,90 µg/mL
same,EC50,T47D,94 µg/mL
same,EC50,[1],66 µg/mL
